Results from US20180057547A1, “DIAGNOSTIC AND THERAPEUTIC EPITOPE, AND TRANSGENIC PLANT” (OXFORD UNIVERSITY INNOVATION LIMITED, priority 1999, published 2018).
Entries after “also recorded” stand apart in the source; their conditions may differ.

How the values were obtained:
[1] = tested on: PBMC from coeliac subjects; assay: IFNγ ELISPOT with PBMC of coeliac disease subjects after bread/gluten challenge; assay type: cell-based, human; conditions: for Elisopt response TG: peptide treated with transglutaminase; for Elisopt response TG / Elisopt response No TG: mean (range), 3 subjects, as in Example 2; for Elisopt response No TG: peptide without transglutaminase treatment; for Mean response as % of the response to the immunodominant epitope: 57-73 A-gliadin epitope substituted at position 65, synthetic peptides 50 μg/ml, 3 coeliac subjects, 6 days after commencing gluten challenge; for % agonist.: agonist activity compared to A-gliadin 57-73 QE65 as shown in Table 9; for % bioactivity compared to unmodified A-gliadin 57-73 QE65 / greater bioactivity than the parent peptide: 50 mcg/ml; for % bioactivity compared to unmodified A-gliadin 57-73 QE65: PBMC from 8 subjects, mean response as % A-G 57-73 QE65 mean response, blank 7.1%; for ELISpot response as % A-gliadin 57-73 QE65, E-substituted: glutamate-substituted peptide; for ELISpot response as % A-gliadin 57-73 QE65, E-substituted / ELISpot response as % A-gliadin 57-73 QE65, Wildtype + tTG / ELISpot response as % A-gliadin 57-73 QE65, Wild type: 25 mcg/ml, 4 subjects, blank 5 (1) %; for ELISpot response as % A-gliadin 57-73 QE65, Wildtype + tTG: tTG-treated wild type peptide; for ELISpot response as % A-gliadin 57-73 QE65, Wild type: unmodified gliadin peptide; for greater bioactivity than the parent peptide: parent A-gliadin 57-73 QE65
[2] = tested on: PBMC from coeliac volunteers; assay: Antagonism of A-gliadin 57-73 QE65 interferon gamma ELISPOT response (simultaneous addition of peptide); assay type: cell-based, human
Description: Simultaneous addition of peptide (50 μg/ml) or buffer and A-gliadin 57-73 QE65 (10 μg/ml) in IFNgamma ELISPOT using PBMC from coeliac volunteers 6 days after commencing 3 day gluten challenge (n=5). Results were expressed as response with peptide plus A-G 57-73 QE65 (mean of duplicates) as % response with buffer plus A-G 57-73 QE65 (mean of 20 replicates). (See Table 9).

[3] = tested on: gluten-specific T cell clones and lines; conditions: from original publications; iTCC intestinal T cell clone, iTCL intestinal polyclonal T cell line, bTCC peripheral blood T cell clone; NS not given; cited from earlier work
[4] = tested on: PBMC from newly diagnosed coeliac subjects; assay: Interferon gamma ELISpot with PBMC of newly diagnosed coeliac subjects, gluten challenge after short GFD; assay type: cell-based, human; conditions: 25 mcg/ml
Description: Newly diagnosed DQ2+ coeliac subjects were recruited from the gastroenterology outpatient service. PBMC were prepared and tested in interferon gamma ELISpot assays before subjects commenced GFD, and at one or two weeks after commencing GFD. In addition, gluten challenge (3 days consuming 4 slices standard white bread, 200 g/day) was performed at one or two weeks after starting GFD. PBMC were prepared and assayed on day six are after commencing gluten challenge. A-gliadin 57-73 QE65 (A), P04724 84-100 QE92 (B) (alone and combined) and A-gliadin 57-73 QP65 (P65) (non-bioactive variant, see above) (all 25 mcg/ml) were assessed.

[5] = substituted variant 50 μg/ml plus A-gliadin 57-73 QE65 10 μg/ml, n=5
[6] = naturally occurring polymorphisms of A-gliadin 57-73 QE65, 50 μg/ml plus A-gliadin 57-73 QE65 10 μg/ml
[7] = coeliacs who had followed GFD for only one week
[8] = gluten challenge 2 weeks after commencing GFD, compared with A-gliadin 57-73 QP65 and blank

PQPQPFPPQLPYPQPQS
Elisopt response TG [1]: 24 (11-43) | Elisopt response No TG [1]: 17 (0-40)

N[C@@H](Cc1ccc(O)cc1)C(=O)O [Y65]
% Inhibit. of A-gliadin 57-73 QE65 interferon gamma ELISpot response [2, 5]: 12% | Mean response as % of the response to the immunodominant epitope ([1]; listed as Tyrosine): 8% | % agonist. [1]: 7%

C[C@@H](O)[C@H](N)C(=O)O [T65]
% Inhibit. of A-gliadin 57-73 QE65 interferon gamma ELISpot response [2, 5]: 28% | % bioactivity compared to unmodified A-gliadin 57-73 QE65 [1]: 7% | Mean response as % of the response to the immunodominant epitope [1]: 55% | % agonist. [1]: 19%

PQLPYPQPQLPYPQPQP
Elisopt response TG [1]: 109 (41-152) | Elisopt response No TG [1]: 3 (0-7)

QLQPFPQPQLPYSQPQP
Elisopt response TG [1]: 53 (44-67) | Elisopt response No TG [1]: 5 (1-7)

PQPELPYPQPELPY [reference compound]
Frequency [3]: 11/17 (iTCL) | ELISpot response as % A-gliadin 57-73 QE65, E-substituted [1]: 48 (9) % | ELISpot response as % A-gliadin 57-73 QE65, Wildtype + tTG [1]: 53 (8) % | ELISpot response as % A-gliadin 57-73 QE65, Wild type [1]: 13 (6) %

QLQPFPQPELPY [reference compound]
Frequency [3]: 12/17 (iTCL) | ELISpot response as % A-gliadin 57-73 QE65, E-substituted [1]: 8 (3) % | ELISpot response as % A-gliadin 57-73 QE65, Wildtype + tTG [1]: 19 (1) % | ELISpot response as % A-gliadin 57-73 QE65, Wild type [1]: 6 (2) %

LGQQQPFPPQQPYPQPQPF
Frequency [3]: 1/23 (bTCC)

PQPQPFPPELPYPQPQS [P04725 82-98 QE90, glutamate-substituted polymorphism GDA5_WHEAT P04725 82-98 (N)]
% Inhibit. of A-gliadin 57-73 QE65 interferon gamma ELISpot response [2, 6]: 19%

PQPQPFPPELPYPQPPP [P04726 82-98 QE90, glutamate-substituted polymorphism GDA6_WHEAT P04726 82-98 (P)]
% Inhibit. of A-gliadin 57-73 QE65 interferon gamma ELISpot response [2, 6]: 5%

CC(C)C[C@H](N)C(=O)O [L65]
% Inhibit. of A-gliadin 57-73 QE65 interferon gamma ELISpot response [2, 5]: 20% | % bioactivity compared to unmodified A-gliadin 57-73 QE65 [1]: 16% | Mean response as % of the response to the immunodominant epitope [1]: 33% | % agonist. [1]: 26%

GQQGYYPTSPQQSGQ
Frequency [3]: 1/1 (iTCC)

QLQPFLQPELPYSQPQP [Q41509 77-93 QE85, glutamate-substituted polymorphism Q41509 77-93]
% Inhibit. of A-gliadin 57-73 QE65 interferon gamma ELISpot response ([2]; naturally occurring polymorphisms of A-gliadin 57-73 QE65, 50 μg/ml plus A-gliadin 57-73 QE65 10 μg/ml, polymorphism SEQ ID NO 71): 11% | % Inhibit. of A-gliadin 57-73 QE65 interferon gamma ELISpot response ([2]; naturally occurring polymorphisms of A-gliadin 57-73 QE65, 50 μg/ml plus A-gliadin 57-73 QE65 10 μg/ml, polymorphism SEQ ID NO 76): 6%

NCCCC[C@H](N)C(=O)O [K65]
% Inhibit. of A-gliadin 57-73 QE65 interferon gamma ELISpot response [2, 5]: 15% | % bioactivity compared to unmodified A-gliadin 57-73 QE65 [1]: 8% | Mean response as % of the response to the immunodominant epitope ([1]; listed as Lysine): 4% | % agonist. [1]: 8%

PQPQPFPPELPYPQTQP [P04723 77-93 QE85, glutamate-substituted polymorphism GDA3_WHEAT P04723 77-93 (O)]
% Inhibit. of A-gliadin 57-73 QE65 interferon gamma ELISpot response [2, 6]: 10%

QLQPFPQPELSYSQPQP [Gliα 3-5 57-73 QE65, glutamate-substituted polymorphism Gli alpha 3,4, 5 57-73 (I)]
% Inhibit. of A-gliadin 57-73 QE65 interferon gamma ELISpot response [2, 6]: 7%

N=C(N)NCCC[C@H](N)C(=O)O [R65]
% Inhibit. of A-gliadin 57-73 QE65 interferon gamma ELISpot response [2, 5]: 13% | % bioactivity compared to unmodified A-gliadin 57-73 QE65 [1]: 11% | Mean response as % of the response to the immunodominant epitope ([1]; listed as Arginine): 1% | % agonist. [1]: 11%

QLQPFPQPELPYPQPQS (listed as Triticum sp.) [A-gliadin 57-73 QE65]
responses after gluten challenge [4, 7]: did not substantially enhance responses | responses after gluten challenge [4, 8]: did induce responses | Mean response as % of the response to the immunodominant epitope [1]: 100% | IFNγ ELISPOT response (result in words) ([1]; PBMC after 3 day bread/gluten challenge): induced maximal responses; also recorded: most potent gliadin peptide for induction of interferon gamma | ELISpot response as % A-gliadin 57-73 QE65, E-substituted [1]: 100% | Frequency ([1]; in vivo (gluten challenge), DQ2): 11/12 in vivo | Elisopt response TG [1]: 100 (100) | ELISpot response as % A-gliadin 57-73 QE65, Wildtype + tTG [1]: 87 (7) % | ELISpot response as % A-gliadin 57-73 QE65, Wild type [1]: 18 (7) %

Y70: A-gliadin 57-73 QE65 variant, Y at position 70 (QLQPFPQPELPYPYPQS)
% bioactivity compared to unmodified A-gliadin 57-73 QE65 [1]: 129% | greater bioactivity than the parent peptide [1]: 30%

QLQPFPQPELPYSQPQP [P02863 77-93 QE85, glutamate-substituted polymorphism GDA0_WHEAT P02863 77-93 (F)]
% Inhibit. of A-gliadin 57-73 QE65 interferon gamma ELISpot response [2, 6]: 6%

N[C@@H](Cc1c[nH]cn1)C(=O)O [H65]
% Inhibit. of A-gliadin 57-73 QE65 interferon gamma ELISpot response [2, 5]: 20% | % bioactivity compared to unmodified A-gliadin 57-73 QE65 [1]: 26% | Mean response as % of the response to the immunodominant epitope ([1]; listed as Histidine): 8% | % agonist. [1]: 16%

QQLPQPEQPQQSFPEQERPF [reference compound]
ELISpot response as % A-gliadin 57-73 QE65, E-substituted [1]: 10 (5) % | ELISpot response as % A-gliadin 57-73 QE65, Wildtype + tTG [1]: 18 (7) % | ELISpot response as % A-gliadin 57-73 QE65, Wild type [1]: 9 (3) %

QQYPSGEGSFQPSQENPQ [reference compound]
ELISpot response as % A-gliadin 57-73 QE65, E-substituted [1]: 14 (8) % | ELISpot response as % A-gliadin 57-73 QE65, Wildtype + tTG [1]: 9 (3) % | ELISpot response as % A-gliadin 57-73 QE65, Wild type [1]: 10 (3) %

QLQPFPQPQLPYPQPQL
Elisopt response TG [1]: 83 (74-97) | Elisopt response No TG [1]: 19 (0-33)

QLQPFSQPQLPYSQPQP
Elisopt response TG [1]: 2 (0-7) | Elisopt response No TG [1]: 0 (0-0)

Y61: A-gliadin 57-73 QE65 variant, Y at position 61 (QLQPYPQPELPYPQPQS)
% bioactivity compared to unmodified A-gliadin 57-73 QE65 [1]: 129% | greater bioactivity than the parent peptide [1]: 30%

QLQPFPQPQLPYPQPQP
Elisopt response TG [1]: 83 (61-113) | Elisopt response No TG [1]: 12 (0-20)

QLQPFLQPQLPYSQPQP
Elisopt response TG [1]: 3 (0-7) | Elisopt response No TG [1]: 0 (0-1)

PQLPYPQPELPYPQPQP [P04724 84-100 QE92, glutamate-substituted polymorphism GDA4_WHEAT P04724 84-100 (K)]
responses after gluten challenge [4, 7]: did not substantially enhance responses | responses after gluten challenge [4, 8]: did induce responses | ELISpot response as % A-gliadin 57-73 QE65, E-substituted [1]: 69 (20) % | ELISpot response as % A-gliadin 57-73 QE65, Wildtype + tTG [1]: 80 (17) % | ELISpot response as % A-gliadin 57-73 QE65, Wild type [1]: 14 (4) %

PQPQPFPPQLPYPQPPP
Elisopt response TG [1]: 19 (11-33) | Elisopt response No TG [1]: 10 (0-30)

QPQPFPPPELPYPQTQP [Gliα 1,6 58-74 QE66, glutamate-substituted polymorphism Gli alpha 1, 6 58-74 (J)]
% Inhibit. of A-gliadin 57-73 QE65 interferon gamma ELISpot response [2, 6]: 11%

N[C@@H](CC(=O)O)C(=O)O [D65]
% bioactivity compared to unmodified A-gliadin 57-73 QE65 [1]: 95% | Mean response as % of the response to the immunodominant epitope [1]: 65%

N[C@@H](CS)C(=O)O [C65]
% bioactivity compared to unmodified A-gliadin 57-73 QE65 [1]: 42% | Mean response as % of the response to the immunodominant epitope [1]: 62%

PQPQPFLPELPYPQPQS [P04727 79-95 QE65, glutamate-substituted polymorphism GDA7_WHEAT P04727 79-95 (M)]
% Inhibit. of A-gliadin 57-73 QE65 interferon gamma ELISpot response [2, 6]: 6%

PQPQPFLPQLPYPQPQS
Elisopt response TG [1]: 21 (11-33) | Elisopt response No TG [1]: 10 (0-30)
